According to patent publication US10829520B2, “Beta-hairpin peptidomimetics” (POLYPHOR AG, priority 2015, dated 2020):
Where a SMILES comes first, the peptide text is derived from it. Bridges are numbered along the chain shown (N, C = ends). [ ]: non-standard residue; d: D form. Tle = CC(C)(C)[C@H](N)C(=O)O; dDab = NCC[C@@H](N)C(=O)O; Nle = CCCC[C@H](N)C(=O)O; Orn = NCCC[C@H](N)C(=O)O; Dab = NCC[C@H](N)C(=O)O; Dap = NC[C@H](N)C(=O)O; Sar = CNCC(=O)O

Legend:
Assay type in all cases: cell-based
[1] = system: human red blood cells (hRBC); assay: Hemolysis of human red blood cells; settings: red cells of human, 1 h, 100 μg/mL
In short: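 Percent hemolysis = OD540 of peptide-treated supernatant relative to the 2.5% Triton X-100 (100%) control, PBS containing 0.001% acetic acid defining 0%. Peptides tested at 100 μg/mL against 20% (v/v) washed human RBC, 1 h, 37 °C, 300 rpm.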

[2] = system: Pseudomonas aeruginosa ATCC 27853; settings: ATCC 27853
In short: (§1)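 MIC in μg/mL read as absence of visible growth after 18-20 h incubation at 35° C. Bacteria at about 10^6 CFU/mL in MH-II (cation-adjusted) broth plus 0.002% P-80 were exposed to two-fold peptide dilutions per standard CLSI microdilution.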

[3] = system: Escherichia coli 926415; settings: 926415
[4] = system: Klebsiella pneumoniae 968733; settings: 968733
[5] = system: Acinetobacter baumannii DSM 30008; settings: DSM 30008
In short: as §1

[6] = system: Escherichia coli ATCC 25922; settings: ATCC 25922
In short: as §1

[7] = system: Klebsiella pneumoniae SSI #3010; settings: SSI #3010
In short: as §1

[8] = system: Acinetobacter baumannii 872842; settings: 872842

For `CC(=O)N[C@@H](Cc1c[nH]c2ccccc12)C(=O)N[C@H]1CSSC[C@@H](C(=O)N[C@@H](CCCN)C(=O)N[C@H](C(=O)N[C@@H](CCN)C(=O)N[C@@H](CCN)C(=O)N[C@H]2CCNC(=O)[C@H]([C@@H](C)O)NC(=O)[C@H](CCN)NC(=O)[C@H](CCN)NC(=O)[C@H](CC(C)C)NC(=O)[C@@H](Cc3ccccc3)NC(=O)[C@H](CCN)NC2=O)[C@@H](C)O)NC(=O)[C@H](Cc2ccc(O)cc2)NC(=O)[C@H](CC(=O)O)NC(=O)[C@H](CC(C)C)NC(=O)[C@@H]2CCCN2C(=O)[C@H]2CCCN2C(=O)[C@H](CO)NC(=O)[C@H](Cc2ccc(O)cc2)NC(=O)[C@H](C(C)(C)C)NC1=O` [Ex. 146] (Ac-WC[Tle]YS[dP]PLDYC[Orn]T[Dab][Dab][Dab][Dab][dF]L[Dab][Dab]T; disulfide 2-11; lactam 16-C), the “Hemolysis at 100 μg/mL” value [1] was 3%, the “Pseudomonas aeruginosa ATCC 27853 MIC” value [2] was 0.5 µg/mL and the “Escherichia coli 926415 MIC” value [3] was 4 µg/mL. For the same compound, the “Klebsiella pneumoniae 968733 MIC” value [4] was 4 µg/mL, the “Acinetobacter baumannii DSM 30008 MIC” value [5] was 0.125 µg/mL and the “Escherichia coli ATCC 25922 MIC” value [6] was 0.25 µg/mL. The “Klebsiella pneumoniae SSI #3010 MIC” value [7] was 0.25 µg/mL and the “Acinetobacter baumannii 872842 MIC” value [8] was 1 µg/mL.

In the case of `CCCC[C@@H]1NC(=O)[C@@H]2CCCN2C(=O)[C@H]2CCCN2C(=O)[C@H](CO)NC(=O)[C@H](CO)NC(=O)[C@H](C(C)(C)C)NC(=O)[C@@H](NC(=O)[C@@H](N)Cc2c[nH]c3ccccc23)CSSC[C@@H](C(=O)N(C)CC(=O)N[C@@H](CCN)C(=O)N[C@H](C(=O)N[C@@H](CCN)C(=O)N[C@H]2CCNC(=O)[C@H]([C@@H](C)O)NC(=O)[C@H](CCN)NC(=O)[C@H](CCN)NC(=O)[C@H](CC(C)C)NC(=O)[C@@H](CC(C)C)NC(=O)[C@H](CCN)NC2=O)[C@@H](C)O)NC(=O)[C@H](Cc2ccc(O)cc2)NC(=O)[C@H](CN)NC1=O` [Ex. 147] (H-WC[Tle]SS[dP]P[Nle][Dap]YC[Sar][Dab]T[Dab][Dab][Dab][dL]L[Dab][Dab]T; disulfide 2-11; lactam 16-C), the “Hemolysis at 100 μg/mL” value [1] is reported as less than 1%, the “Pseudomonas aeruginosa ATCC 27853 MIC” value [2] is reported as 1 µg/mL and the “Escherichia coli 926415 MIC” value [3] is reported as 0.0625 µg/mL. The “Klebsiella pneumoniae 968733 MIC” value [4] was 0.5 µg/mL, the “Acinetobacter baumannii DSM 30008 MIC” value [5] was 0.03125 µg/mL and the “Escherichia coli ATCC 25922 MIC” value [6] was 0.0625 µg/mL. For the same compound, the “Klebsiella pneumoniae SSI #3010 MIC” value [7] was 0.0625 µg/mL and the “Acinetobacter baumannii 872842 MIC” value [8] was 0.0625 µg/mL.

With `CC(C)C[C@@H]1NC(=O)[C@@H](CC(C)C)NC(=O)[C@H](CCN)NC(=O)[C@@H](NC(=O)[C@H](CCN)NC(=O)[C@H](CCN)NC(=O)[C@@H](CCN)NC(=O)[C@H](CCCN)NC(=O)[C@@H]2CSSC[C@H](NC(=O)[C@@H](N)Cc3c[nH]c4ccccc34)C(=O)N[C@@H](C(C)C)C(=O)N[C@@H](CO)C(=O)N[C@@H](CO)C(=O)N3CCC[C@@H]3C(=O)N3CCC[C@H]3C(=O)N[C@@H](C(C)C)C(=O)N[C@@H](CN)C(=O)N[C@@H](Cc3ccc(O)cc3)C(=O)N2)CCNC(=O)[C@H]([C@@H](C)O)NC(=O)[C@H](CCN)NC(=O)[C@H](CCN)NC1=O` [Ex. 148] (H-WCVSS[dP]PV[Dap]YC[Orn][dDab][Dab][Dab][Dab][Dab][dL]L[Dab][Dab]T; disulfide 2-11; lactam 16-C) the “Hemolysis at 100 μg/mL” value [1] was less than 1%, the “Pseudomonas aeruginosa ATCC 27853 MIC” value [2] was 0.125 µg/mL and the “Escherichia coli 926415 MIC” value [3] was 0.5 µg/mL. For the same compound, the “Klebsiella pneumoniae 968733 MIC” value [4] was 4 µg/mL, the “Acinetobacter baumannii DSM 30008 MIC” value [5] was 0.5 µg/mL and the “Escherichia coli ATCC 25922 MIC” value [6] was 0.25 µg/mL. For the same compound, the “Klebsiella pneumoniae SSI #3010 MIC” value [7] was 1 µg/mL and the “Acinetobacter baumannii 872842 MIC” value [8] was 0.25 µg/mL.

With `CC(C)C[C@@H]1NC(=O)[C@@H](CC(C)C)NC(=O)[C@H](CCN)NC(=O)[C@@H](NC(=O)[C@H](CCN)NC(=O)[C@@H](CCN)NC(=O)[C@@H](NC(=O)[C@H](CCCN)NC(=O)[C@@H]2CSSC[C@H](NC(=O)[C@@H](N)Cc3c[nH]c4ccccc34)C(=O)N[C@@H](C(C)C)C(=O)N[C@@H](CO)C(=O)N[C@@H](CO)C(=O)N3CCC[C@@H]3C(=O)N[C@@H](Cc3ccc(O)cc3)C(=O)N[C@@H](C(C)C)C(=O)N[C@@H](CN)C(=O)N[C@@H](Cc3ccc(O)cc3)C(=O)N2)[C@@H](C)O)CCNC(=O)[C@H]([C@@H](C)O)NC(=O)[C@H](CCN)NC(=O)[C@H](CCN)NC1=O` [Ex. 149] (H-WCVSS[dP]YV[Dap]YC[Orn]T[dDab][Dab][Dab][Dab][dL]L[Dab][Dab]T; disulfide 2-11; lactam 16-C) the “Hemolysis at 100 μg/mL” value [1] was less than 1%, the “Pseudomonas aeruginosa ATCC 27853 MIC” value [2] was 0.5 µg/mL and the “Escherichia coli 926415 MIC” value [3] was 0.125 µg/mL. The “Klebsiella pneumoniae 968733 MIC” value [4] was 0.5 µg/mL, the “Acinetobacter baumannii DSM 30008 MIC” value [5] was 0.5 µg/mL and the “Escherichia coli ATCC 25922 MIC” value [6] was 0.5 µg/mL. The “Klebsiella pneumoniae SSI #3010 MIC” value [7] was 0.25 µg/mL and the “Acinetobacter baumannii 872842 MIC” value [8] was 0.0625 µg/mL.

With `CCCC[C@@H]1NC(=O)[C@@H]2CCCN2C(=O)[C@H]2CCCN2C(=O)[C@H](CO)NC(=O)[C@H](CO)NC(=O)[C@H](C(C)C)NC(=O)[C@@H](NC(=O)[C@@H](N)Cc2c[nH]c3ccccc23)CSSC[C@@H](C(=O)N(C)CC(=O)N[C@@H](CCN)C(=O)N[C@H](C(=O)N[C@@H](CCN)C(=O)N[C@H]2CCNC(=O)[C@H]([C@@H](C)O)NC(=O)[C@H](CCN)NC(=O)[C@H](CCN)NC(=O)[C@H](CC(C)C)NC(=O)[C@@H](CC(C)C)NC(=O)[C@H](CCN)NC2=O)[C@@H](C)O)NC(=O)[C@H](C)NC(=O)[C@H](CN)NC1=O` [Ex. 150] (H-WCVSS[dP]P[Nle][Dap]AC[Sar][Dab]T[Dab][Dab][Dab][dL]L[Dab][Dab]T; disulfide 2-11; lactam 16-C) the “Hemolysis at 100 μg/mL” value [1] was less than 1%, the “Pseudomonas aeruginosa ATCC 27853 MIC” value [2] was 1 µg/mL and the “Escherichia coli 926415 MIC” value [3] was 0.5 µg/mL. The “Klebsiella pneumoniae 968733 MIC” value [4] was 8 µg/mL, the “Acinetobacter baumannii DSM 30008 MIC” value [5] was 0.25 µg/mL and the “Escherichia coli ATCC 25922 MIC” value [6] was 0.125 µg/mL. For the same compound, the “Klebsiella pneumoniae SSI #3010 MIC” value [7] was 0.25 µg/mL and the “Acinetobacter baumannii 872842 MIC” value [8] was 0.25 µg/mL.

For `CC(C)C[C@@H]1NC(=O)[C@@H](CC(C)C)NC(=O)[C@H](CCN)NC(=O)[C@@H](NC(=O)[C@H](CCN)NC(=O)[C@H](CCN)NC(=O)[C@@H](NC(=O)[C@H](CCCN)NC(=O)[C@@H]2CSSC[C@H](NC(=O)[C@@H](N)Cc3c[nH]c4ccccc34)C(=O)N[C@@H](C(C)C)C(=O)N[C@@H](Cc3ccc(O)cc3)C(=O)N[C@@H](CO)C(=O)N3CCC[C@@H]3C(=O)N3CCC[C@H]3C(=O)N[C@@H](CC(C)C)C(=O)N[C@@H](CC(=O)O)C(=O)N[C@@H](Cc3ccc(O)cc3)C(=O)N2)[C@@H](C)O)CCNC(=O)[C@H]([C@@H](C)O)NC(=O)[C@H](CCN)NC(=O)[C@H](CCN)NC1=O` [Ex. 151] (H-WCVYS[dP]PLDYC[Orn]T[Dab][Dab][Dab][Dab][dL]L[Dab][Dab]T; disulfide 2-11; lactam 16-C), the “Hemolysis at 100 μg/mL” value [1] was less than 1%, the “Pseudomonas aeruginosa ATCC 27853 MIC” value [2] was 0.5 µg/mL and the “Escherichia coli 926415 MIC” value [3] was 2 µg/mL. For the same compound, the “Klebsiella pneumoniae 968733 MIC” value [4] was 8 µg/mL, the “Acinetobacter baumannii DSM 30008 MIC” value [5] was 1 µg/mL and the “Escherichia coli ATCC 25922 MIC” value [6] was 0.25 µg/mL. The “Klebsiella pneumoniae SSI #3010 MIC” value [7] was 1 µg/mL and the “Acinetobacter baumannii 872842 MIC” value [8] was 0.5 µg/mL.

For `CC(C)C[C@@H]1NC(=O)[C@@H](CC(C)C)NC(=O)[C@H](CCN)NC(=O)[C@@H](NC(=O)[C@H](CCN)NC(=O)[C@@H](NC(=O)[C@H](CCN)NC(=O)CN(C)C(=O)[C@@H]2CSSC[C@H](NC(=O)[C@@H](N)Cc3c[nH]c4ccccc34)C(=O)N[C@@H](C(C)C)C(=O)N[C@@H](CCCNC(=N)N)C(=O)N[C@@H](CCCNC(=N)N)C(=O)N3CCC[C@@H]3C(=O)N3CCC[C@H]3C(=O)N[C@@H](CC(C)C)C(=O)N[C@@H](CO)C(=O)N[C@@H](Cc3ccc(O)cc3)C(=O)N2)[C@@H](C)O)CCNC(=O)[C@H]([C@@H](C)O)NC(=O)[C@H](CCN)NC(=O)[C@H](CCN)NC1=O` [Ex. 152] (H-WCVRR[dP]PLSYC[Sar][Dab]T[Dab][Dab][Dab][dL]L[Dab][Dab]T; disulfide 2-11; lactam 16-C), the “Hemolysis at 100 μg/mL” value [1] was 1%, the “Pseudomonas aeruginosa ATCC 27853 MIC” value [2] was 2 µg/mL and the “Escherichia coli 926415 MIC” value [3] was 2 µg/mL. For the same compound, the “Klebsiella pneumoniae 968733 MIC” value [4] was 8 µg/mL, the “Acinetobacter baumannii DSM 30008 MIC” value [5] was 0.25 µg/mL and the “Escherichia coli ATCC 25922 MIC” value [6] was 0.25 µg/mL. The “Klebsiella pneumoniae SSI #3010 MIC” value [7] was 0.25 µg/mL and the “Acinetobacter baumannii 872842 MIC” value [8] was 0.125 µg/mL.
